{"source": "patent US6479548B2", "about": "“Substituted stilbenes as glucose uptake enhancers” (Telik, Inc., priority 2000, dated 2002)", "data": [{"biological_target": "T1, complete β-kinase domain of the human insulin receptor (CKD) (Homo sapiens, UniProt P06213)", "T1 construct": "The complete β-kinase domain of the human insulin receptor (CKD); made in house", "T1 sequence (P06213 1023-1298 limits assumed)": "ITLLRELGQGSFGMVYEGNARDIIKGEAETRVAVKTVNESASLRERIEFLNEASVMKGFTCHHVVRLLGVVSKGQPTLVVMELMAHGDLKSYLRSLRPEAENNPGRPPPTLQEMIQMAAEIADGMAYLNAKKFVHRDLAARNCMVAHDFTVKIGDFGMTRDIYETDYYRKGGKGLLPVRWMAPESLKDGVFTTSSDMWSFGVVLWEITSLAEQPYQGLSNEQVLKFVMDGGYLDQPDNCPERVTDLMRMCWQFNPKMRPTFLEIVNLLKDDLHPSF", "assay": "32P-CKD autophosphorylation assay", "assay_type": "biochemical", "settings": "10 min; compound at 10 μM; phosphorylation of CKD expressed as % of the vehicle level; read-out: Activity (% vs. control)", "protocol": "(§1) The complete β-kinase domain of the human insulin receptor (CKD) was expressed in, and purified from, baculovirus. CKD (4.0 μg/ml), in a solution of 29 mM HEPES (pH 7.6), 0.05% Triton X-100, 10 mM MgCl2, 2 mM MnCl2 (50 μl final volume), is combined with 50 μM ATP, and 5 μCi ^32P-ATP (3000 Ci/mmol).", "units": {"activity at 10 µM": "%"}, "values": [{"molecule": "COc1ccc(C(=O)Nc2ccc(/C=C/c3ccccc3)cc2C(=O)O)cc1OC", "note": "[Compound 53, 5-((1E)-2-phenylvinyl)-2-[(3,4-dimethoxyphenyl)carbonylamino]benzoic acid]", "activity at 10 µM": 105}, {"molecule": "COc1cc(C(=O)Nc2ccc(/C=C/c3ccccc3)cc2C(=O)O)cc(OC)c1OC", "note": "[Compound 26, 5-((1E)-2-phenylvinyl)-2-[(3,4,5-trimethoxyphenyl)carbonylamino]benzoic acid]", "activity at 10 µM": 107}, {"molecule": "CC(=O)N(c1ccc(C(=O)O)cc1)c1ccc(C(=O)Nc2ccc(/C=C/c3ccccc3F)cc2C(=O)O)cc1", "note": "[Compound 33, 5-[(1E)-2-(2-fluorophenyl)vinyl]-2-({4-[(4-carboxyphenyl)-N-methylcarbonyl-amino]phenyl}carbonylamino)benzoic acid]", "activity at 10 µM": 78}, {"molecule": "COC(=O)c1ccc(C(=O)N(C)c2ccc(C(=O)Nc3ccc(/C=C/c4ccc(OC)cc4)cc3C(=O)OC)cc2)cc1", "note": "[Compound 29, methyl 4-{N-[4-(N-{4-[(1E)-2-(4-methoxyphenyl)vinyl]-2-(methoxycarbonyl)-phenyl}carbamoyl)phenyl]-N-methylcarbamoyl}benzoate]", "activity at 10 µM": 61}, {"molecule": "COc1cccc(C(=O)Nc2ccc(/C=C/c3ccccc3)cc2C(=O)O)c1", "note": "[Compound 42, 5-((1E)-2-phenylvinyl)-2-[(3-methoxyphenyl)carbonylamino]benzoic acid]", "activity at 10 µM": 123}, {"molecule": "CN(C(=O)c1ccccc1)c1ccc(/C=C/c2ccccc2)cc1C(=O)O", "note": "[Compound 25, 5-((1E)-2-phenylvinyl)-2-(N-methylphenylcarbonylamino)benzoic acid]", "activity at 10 µM": 59}, {"molecule": "O=C(O)COc1cc(OCC(=O)O)cc(C(=O)Nc2ccc(/C=C/c3ccccc3)cc2C(=O)O)c1", "note": "[Compound 59, 5-((1E)-2-phenylvinyl)-2-{[3,5-bis(carboxymethoxy)phenyl]carbonylamino}benzoic acid]", "activity at 10 µM": 94}, {"molecule": "COC(=O)c1ccc(N(C(C)=O)c2ccc(C(=O)Nc3ccc(/C=C/c4ccc(S(=O)(=O)O)cc4)cc3C(=O)OC)cc2)cc1", "note": "[Compound 36, 4-((1E)-2-{3-(methoxycarbonyl)-4-[(4-{[4-(methoxycarbonyl)phenyl]-N-methyl-carbonylamino}phenyl)carbonylamino]phenyl}vinyl)benzenesulfonic acid]", "activity at 10 µM": 171}, {"molecule": "O=C(O)c1ccc(COc2cc(OCc3ccc(C(=O)O)cc3)cc(C(=O)Nc3ccc(/C=C/c4ccccc4)cc3C(=O)O)c2)cc1", "note": "[Compound 60, 5-((1E)-2-phenylvinyl)-2-({3,5-bis[(4-carboxyphenyl)methoxy]phenyl}carbonyl-amino)benzoic acid]", "activity at 10 µM": 80}, {"molecule": "CC(=O)N(c1ccc(C(=O)O)cc1)c1ccc(C(=O)Nc2ccc(/C=C/c3ccc(F)cc3)cc2C(=O)O)cc1", "note": "[Compound 35, 5-[(1E)-2-(4-fluorophenyl)vinyl]-2-({4-[(4-carboxyphenyl)-N-methylcarbonyl-amino]phenyl}carbonylamino)benzoic acid]", "activity at 10 µM": 177}, {"molecule": "COC(=O)c1ccc(N(C(C)=O)c2ccc(C(=O)Nc3ccc(/C=C/c4ccc(OC)cc4)cc3C(=O)O)cc2)cc1", "note": "[Compound 30, 5-[(1E)-2-(4-methoxyphenyl)vinyl]-2-[(4-{[4-(methoxycarbonyl)phenyl]-N-methyl-carbonylamino}phenyl)carbonylamino]benzoic acid]", "activity at 10 µM": 93}, {"molecule": "COc1ccc(/C=C/c2ccc(N(C)C(=O)c3ccccc3)c(C(=O)O)c2)cc1", "note": "[Compound 28, 5-[(1E)-2-(4-methoxyphenyl)vinyl]-2-(N-methylphenylcarbonylamino)benzoic acid]", "activity at 10 µM": 75}, {"molecule": "COc1cccc(C(=O)Nc2ccc(/C=C/c3ccccc3)cc2CC(=O)O)c1", "note": "[Compound 55, 2-{5-((1E)-2-phenylvinyl)-2-[(3-methoxyphenyl)carbonylamino]phenyl}acetic acid]", "activity at 10 µM": 117}, {"molecule": "COC(=O)c1ccc(/C=C/c2ccc(NC(=O)c3ccc(N(C)C(=O)c4ccc(C(=O)OC)cc4)cc3)cc2)cc1", "note": "[Compound 44, methyl 4-(N-{4-[N-(4-{(1E)-2-[4-(methoxycarbonyl)phenyl]vinyl}phenyl)-carbamoyl]phenyl}-N-methylcarbamoyl)benzoate]", "activity at 10 µM": 97}, {"molecule": "COC(=O)c1cc(/C=C/c2ccccc2)ccc1NC(=O)c1ccccc1", "note": "[Compound 27, methyl 5-((1E)-2-phenylvinyl)-2-[phenylcarbonylamino)benzoate]", "activity at 10 µM": 73}, {"molecule": "COC(=O)c1ccc(N(C(C)=O)c2ccc(N(C(C)=O)c3ccc(/C=C/c4ccc(OC(C)(C)C)c(C(=O)O)c4)cc3)cc2)cc1", "note": "[Compound 49, 5-((1E)-2-{4-[(4-{[4-(methoxycarbonyl)phenyl]-N-methylcarbonylamino}phenyl)-N-methylcarbonylamino]phenyl}vinyl)-2-(tert-butoxy)benzoic acid]", "activity at 10 µM": 81}, {"molecule": "COC(=O)c1ccc(C(=O)N(C)c2ccc(C(=O)Nc3ccc(/C=C/c4ccccc4F)cc3C(=O)OC)cc2)cc1", "note": "[Compound 32, methyl 4-{N-[4-(N-{4-[(1E)-2-(2-fluorophenyl)vinyl]-2-(methoxycarbonyl)phenyl}-carbamoyl)phenyl]-N-methylcarbamoyl}benzoate]", "activity at 10 µM": 81}, {"molecule": "COC(=O)c1ccc(N(C(C)=O)c2ccc(C(=O)Nc3ccc(/C=C/c4ccccc4)c(C(=O)O)c3)cc2)cc1", "note": "[Compound 39, 2-((1E)-2-phenylvinyl)-5-[(4-{[4-(methoxycarbonyl)phenyl]-N-methylcarbonyl-amino}phenyl)carbonylamino]benzoic acid]", "activity at 10 µM": 64}, {"molecule": "O=C(Nc1ccc(/C=C/c2ccccc2)c(C(=O)O)c1)c1ccccc1", "note": "[Compound 38, 2-((1E)-2-phenylvinyl)-5-(phenylcarbonylamino)benzoic acid]", "activity at 10 µM": 105}, {"molecule": "COC(=O)c1ccc(C(=O)N(C)c2ccc(C(=O)Nc3ccc(/C=C/c4cccc(F)c4)cc3C(=O)OC)cc2)cc1", "note": "[Compound 37, methyl 4-{N-[4-(N-{4-[(1E)-2-(3-fluorophenyl)vinyl]-2-(methoxycarbonyl)phenyl}-carbamoyl)phenyl]-N-methylcarbamoyl}benzoate]", "activity at 10 µM": 93}, {"molecule": "COc1ccc(/C=C/c2ccc(NC(=O)c3ccc(N(C(C)=O)c4ccc(C(=O)O)cc4)cc3)c(C(=O)O)c2)cc1", "note": "[Compound 31, 5-[(1E)-2-(4-methoxyphenyl)vinyl]-2-({4-[(4-carboxyphenyl)-N-methylcarbonyl-amino]phenyl}carbonylamino)benzoic acid]", "activity at 10 µM": 121}, {"molecule": "COC(=O)c1ccc(N(C(C)=O)c2ccc(C(=O)Nc3ccc(/C=C/c4cccc(CC(=O)O)c4)cc3)cc2)cc1", "note": "[Compound 46, 2-[3-((1E)-2-{4-[(4-{[4-(methoxycarbonyl)phenyl]-N-methylcarbonylamino}-phenyl)carbonylamino]phenyl}vinyl)phenyl]acetic acid]", "activity at 10 µM": 91}, {"molecule": "O=C(Nc1ccc(/C=C/c2ccccc2)cc1C(=O)O)c1cc(O)cc(O)c1", "note": "[Compound 41, 5-((1E)-2-phenylvinyl)-2-[(3,5-dihydroxyphenyl)carbonylamino]benzoic acid]", "activity at 10 µM": 80}, {"molecule": "CC(=O)N(c1ccc(/C=C/c2ccc(OC(C)(C)C)c(C(=O)O)c2)cc1)c1ccc(N(C(C)=O)c2ccc(C(=O)O)cc2)cc1", "note": "[Compound 50, 5-{(1E)-2-[4-({4-[(4-carboxyphenyl)-N-methylcarbonylamino]phenyl}-N-methyl-carbonylamino)phenyl]vinyl}-2-(tert-butoxy)benzoic acid]", "activity at 10 µM": 105}, {"molecule": "COC(=O)c1cc(/C=C/c2ccccc2)ccc1NC(=O)c1ccc(OC)c(OC)c1", "note": "[Compound 52, methyl 5-((1E)-2-phenylvinyl)-2-[(3,4-dimethoxyphenyl)carbonylamino]benzoate]", "activity at 10 µM": 54}, {"molecule": "COC(=O)c1ccc(C(=O)N(C)c2ccc(C(=O)Nc3ccc(/C=C/c4ccc(F)cc4)cc3C(=O)OC)cc2)cc1", "note": "[Compound 34, methyl 4-{N-[4-(N-{4-[(1E)-2-(4-fluorophenyl)vinyl]-2-(methoxycarbonyl)phenyl}-carbamoyl)phenyl]-N-methylcarbamoyl}benzoate]", "activity at 10 µM": 88}, {"molecule": "COc1ccc(/C=C/c2ccc(N(Cc3ccc(C(=O)O)cc3)C(=O)c3ccc(N(C(C)=O)c4ccc(C(=O)O)cc4)cc3)c(C(=O)O)c2)cc1", "note": "[Compound 57, 5-[(1E)-2-(4-methoxyphenyl)vinyl]-2-(N-[(4-carboxyphenyl)methyl]{4-[(4-carboxy-phenyl)-N-methylcarbonylamino]phenyl}carbonylamino)benzoic acid]", "activity at 10 µM": 107}]}, {"biological_target": "T1, complete β-kinase domain of the human insulin receptor (CKD)", "assay": "32P-CKD autophosphorylation assay", "assay_type": "biochemical", "settings": "compound at 10 μM; phosphorylation of CKD expressed as % of the vehicle level", "protocol": "as §1", "units": {"Activity (% vs. control)": "%"}, "values": [{"molecule": "COc1ccc(/C=C/c2ccc(NC(=O)c3ccc4c(c3)OCO4)cc2)cc1", "note": "[Compound 56, N-{4-[(1E)-2-(4-methoxyphenyl)vinyl]phenyl}-2H-benzo[d]1,3-dioxolen-5-yl-carboxamide]", "Activity (% vs. control)": 51}]}]}
